# Patent publication EP4635500A1, “THERAPEUTIC AGENT FOR BACTERIAL INFECTION” (Sumitomo Pharma Co., Ltd., priority 2022, dated 2024)
# Columns and labels:
# Citrobacter freundii = experiment: MIC and MBC, broth microdilution (Example 4, Table 3); assay type: cell-based; conditions: Citrobacter freundii CDC-157 (NDM-1)
# Fusobacterium spp. = experiment: MIC, agar dilution, anaerobic bacteria (Example 9, Tables 20, 25); assay type: cell-based
smiles,measurement,setting,value
"CC(C)(O/N=C(\C(=O)N[C@@H]1C(=O)N2C(C(=O)[O-])=C(C[n+]3ccccc3)CS[C@H]12)c1csc(N)n1)C(=O)O [CAZ, ceftazidime]",MBC,Citrobacter freundii,> 128 µg/mL
same,MIC,Citrobacter freundii,> 128 µg/mL
Cc1ncc([N+](=O)[O-])n1CCO [Metronidazole],MIC50,Fusobacterium spp.; Fusobacterium spp.,≤ 0.12 µg/mL
same,MICrange,Fusobacterium spp.; Fusobacterium spp.,≤0.12 to 0.5 µg/mL
same,MIC90,"Fusobacterium spp.; Fusobacterium, Fusobacterium spp.",0.25 µg/mL
same,MIC,"Fusobacterium spp.; Fusobacterium, KUB No. 6692 Fusobacterium sp.",≤ 0.12 µg/mL
same,MIC,"Fusobacterium spp.; Fusobacterium, KUB No. 6693 Fusobacterium nucleatium",0.25 µg/mL
same,MIC,"Fusobacterium spp.; Fusobacterium, KUB No. 6708 Fusobacterium necrophorun",≤ 0.12 µg/mL
same,MIC,"Fusobacterium spp.; Fusobacterium, KUB No. 6715 Fusobacterium sp.",≤ 0.12 µg/mL
same,MIC,"Fusobacterium spp.; Fusobacterium, KUB No. 6716 Fusobacterium nuncleatum",≤ 0.12 µg/mL
same,MIC,"Fusobacterium spp.; Fusobacterium, KUB No. 6719 Fusobacterium sp.",≤ 0.12 µg/mL
same,MIC,"Fusobacterium spp.; Fusobacterium, KUB No. 6725 Fusobacterium sp.",≤ 0.12 µg/mL
same,MIC,Fusobacterium spp.; KUB No. 2741 Fusobacterium varium ATCC 27725,0.25 µg/mL
same,MIC,Fusobacterium spp.; KUB No. 2742 Fusobacterium nucleatum ATCC 25586,≤ 0.12 µg/mL
same,MIC,Fusobacterium spp.; KUB No. 6694 Fusobacterium necrophorum,≤ 0.12 µg/mL
same,MIC,Fusobacterium spp.; KUB No. 6695 Fusobacterium necrophorum,0.5 µg/mL
same,MIC,Fusobacterium spp.; KUB No. 6696 Fusobacterium necrophorum,≤ 0.12 µg/mL
same,MIC,Fusobacterium spp.; KUB No. 6697 Fusobacterium nucleatum,≤ 0.12 µg/mL
same,MIC,Fusobacterium spp.; KUB No. 6698 Fusobacterium nucleatum,≤ 0.12 µg/mL
same,MIC,Fusobacterium spp.; KUB No. 6699 Fusobacterium necrophorum,≤ 0.12 µg/mL
same,MIC,Fusobacterium spp.; KUB No. 6700 Fusobacterium nucleatum,≤ 0.12 µg/mL
same,MIC,Fusobacterium spp.; KUB No. 6702 Fusobacterium necrophorum,0.25 µg/mL
same,MIC,Fusobacterium spp.; KUB No. 6710 Fusobacterium necrophorum,0.25 µg/mL
same,MIC,Fusobacterium spp.; KUB No. 6720 Fusobacterium nucleatum,≤ 0.12 µg/mL
same,MIC,Fusobacterium spp.; KUB No. 6724 Fusobacterium nucleatum,≤ 0.12 µg/mL
